The values that follow come from US20140187556A1, “ANTI-AMYLOID COMPOUNDS AND METHODS” (Treventis Corporation, priority 2011, published 2014).

The assay deals with T1, Aβ40 (Homo sapiens, UniProt P05067).
T1 construct: pre-treated Aβ40 (40 μM in 20 mM Tris, pH 7.4)
T1 sequence (P05067 672-711 limits assumed): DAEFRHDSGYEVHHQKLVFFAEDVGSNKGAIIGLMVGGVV
Kind of assay: Thioflavin T (ThT) Aβ aggregation assay. In kind it is biochemical. Particulars: 20 μM Aβ40, 37 degrees C. The procedure: Aβ40 (1.0 mg) was pre-treated in a 1.5 mL microfuge tube with HFIP (1 mL) and sonicated for 20 min to disassemble any pre-formed Aβ aggregates. The HFIP was removed with a stream of argon and the Aβ dissolved in Tris base (5.8 mL, 20 mM, pH ˜10). The pH was adjusted to 7.4 with concentrated HCl (−10 μL) and the solution filtered using a syringe filter (0.2 μm) before being used.
The kinetic ThT assay for Aβ aggregation is similar to that of Chalifour et al (Chalifour et al, 2003, J. Biol. Chem. 278:34874-81). Briefly, pre-treated Aβ40 (40 μM in 20 mM Tris, pH 7.4), was diluted with an equal volume of 8 μM ThT in Tris (20 mM, pH 7.4, 300 mM NaCl). Aliquots of Aβ/ThT (200 μL) were added to wells of a black polystyrene 96-well plate, followed by 2 μL of a compound in DMSO (variable concentration), or DMSO alone (controls). Incubations were performed in triplicate and were taken to contain 20 μM Aβ, various concentration of compound in 20 mM Tris, pH 7.4, 150 mM NaCl, 1% DMSO. Plates were covered with clear polystyrene lids and incubated at 37 degrees C. in a Tecan Genios microplate reader. Fluorescence readings (λex=450 nm, λem=480 nm) were taken every 15 min., after first shaking at high intensity for 15 s and allowing to settle for 10 s before each reading. Active compounds attenuated the increase in fluorescence over time that occurred in controls.
Take `O=C(c1ccccc1)N1CCN(c2ccc(Cl)c(Nc3ccccc3)c2)CC1` [TRV 1094, (4-(4-chloro-3-(phenylamino)phenyl)piperazin-1-yl)(phenyl)methanone]: the concentration for half-maximal inhibition (IC50) (usually the concentration that inhibits the measured activity by half) was 31.6 ± 4.8 µM.
The result for `O=C(O)c1cccc(-c2ccc(Cl)c(Nc3ccccc3)c2)c1` [TRV 1097, 4′-chloro-3′-(phenylamino)-[1,1′-biphenyl]-3-carboxylic acid] reads over 50 µM; that for `CC1CN(c2ccc([N+](=O)[O-])c(Nc3ccccc3)c2)CC(C)N1C(=O)c1ccccc1` (centres unmarked) [TRV 1098, (2,6-dimethyl-4-(4-nitro-3-(phenyl amino)phenyl)piperazin-1-yl)(phenyl)methanone], 3.99 ± 3.77 µM; that for `CC1CN(c2ccc([N+](=O)[O-])c(Nc3ccccc3)c2)CCN1C(=O)c1ccccc1` (centres unmarked) [TRV 1099, (2-methyl-4-(4-nitro-3-(phenylamino)phenyl)piperazin-1-yl)(phenyl)methanone], 6.12 ± 2.78 µM.
To `CNC(=O)c1cccc(-c2ccc([N+](=O)[O-])c(NCc3ccccc3)c2)c1` [TRV 1101, 3′-(benzylamino)-N-methyl-4′-nitrobiphenyl-3-carboxamide] belongs over 50 µM; to `NC(=O)c1cccc(-c2ccc([N+](=O)[O-])c(NCc3ccccc3)c2)c1` [TRV 1103, 3′-(benzylamino)-4′-nitrobiphenyl-3-carboxamide], 10.5 ± 0.75 µM; to `O=C(c1cccc(-c2ccc([N+](=O)[O-])c(NCc3ccccc3)c2)c1)N1CCOCC1` [TRV 1113, (3′-(benzyl amino)-4′-nitrobiphenyl-3-yl)(morpholino)methanone], over 50 µM.
The result for `CC(=O)N1CCN(C(=O)c2cccc(-c3ccc([N+](=O)[O-])c(NCc4ccccc4)c3)c2)CC1` [TRV 1114, 1-(4-(3′-(benzylamino)-4′-nitrobiphenylcarbonyl)piperazin-1-yl)ethanone] reads over 50 µM.
The molecule `CCNC(=O)c1cccc(-c2ccc([N+](=O)[O-])c(NCc3ccccc3)c2)c1` [TRV 1116, 3′-(benzylamino)-N-ethyl-4′-nitrobiphenyl-3-carboxamide] showed an IC50 of over 50 µM.
The result for `CN(Cc1ccccc1)C(=O)c1cccc(-c2ccc([N+](=O)[O-])c(NCc3ccccc3)c2)c1` [TRV 1118, N-benzyl-3′-(benzylamino)-N-methyl-4′-nitrobiphenyl-3-carboxamide] reads 6.47 ± 4.92 µM; that for `CC(=O)c1cccc(-c2ccc([N+](=O)[O-])c(NCc3ccccc3)c2)c1` [TRV 1124, 1-(3′-(benzylamino)-4′-nitrobiphenyl-3-yl)ethanone], 6.49 ± 2.5 µM; that for `O=[N+]([O-])c1ccc(-c2ccccc2-c2nnn[nH]2)cc1NCc1ccccc1` [TRV 1125, N-benzyl-4-nitro-2′-(1H-tetrazol-5-yl)-[1,1′-biphenyl]-3-amine], 12.5 ± 2.79 µM.
`N#Cc1ccc(-c2cccc(C(=O)O)c2)cc1NCc1ccccc1` [TRV 1128, 3′-(benzylamino)-4′-cyanobiphenyl-3-carboxylic acid]: the IC50 was over 50 µM.
The result for `CCCN(CCC)C(=O)c1cccc(-c2ccc([N+](=O)[O-])c(NCc3ccccc3)c2)c1` [TRV 1130, 3′-(benzylamino)-4′-nitro-N,N-dipropylbiphenyl-3-carboxamide] reads over 50 µM.
`O=C(C1CCCN(c2ccc([N+](=O)[O-])c(NCc3ccccc3)c2)C1)N1CCCC1` (centres unmarked) [TRV 1131, (1-(3-(benzylamino)-4-nitrophenyl)piperidin-3-yl)(pyrrolidin-1-yl)methanone] came in with an IC50 of 27.8 ± 27.6 µM.
The result for `CN(C)C(=O)C1CCCN(c2ccc([N+](=O)[O-])c(NCc3ccccc3)c2)C1` (centres unmarked) [TRV 1132, 1-(3-(benzylamino)-4-nitrophenyl)-N,N-dimethylpiperidine-3-carboxamide] reads 11.5 ± 0.29 µM; that for `O=C(C1CCN(c2ccc([N+](=O)[O-])c(NCc3ccccc3)c2)CC1)N1CCCC1` [TRV 1133, (1-(3-(benzyl amino)-4-nitrophenyl)piperidin-4-yl)(pyrrolidin-1-yl)methanone], 17.9 ± 13.3 µM.
To `CN(C)C(=O)C1CCN(c2ccc([N+](=O)[O-])c(NCc3ccccc3)c2)CC1` [TRV 1134, 1-(3-(benzylamino)-4-nitrophenyl)-N,N-dimethylpiperidine-4-carboxamide] belongs 10.7 ± 0.54 µM.
To `CCN(CC)c1cc(N2CCN(C(=O)c3ccccc3)CC2)ccc1[N+](=O)[O-]` [TRV 1135, (4-(3-(diethylamino)-4-nitrophenyl)piperazin-1-yl)(phenyl)methanone] belongs 12.4 ± 0.62 µM; to `N#Cc1cccc(-c2ccc([N+](=O)[O-])c(NCc3ccccc3)c2)c1` [TRV 1136, 3′-(benzylamino)-4′-nitrobiphenyl-3-carbonitrile], over 50 µM.
The molecule `O=C(c1ccccc1)N1CCN(c2ccc([N+](=O)[O-])c(N3CCCCC3)c2)CC1` [TRV 1137, (4-(4-nitro-3-(piperidin-1-yl)phenyl)piperazin-1-yl)(phenyl)methanone] gave an IC50 of about 10 µM.
The result for `O=C(c1ccccc1)N1CCN(c2ccc([N+](=O)[O-])c(N3CCOCC3)c2)CC1` [TRV 1138, (4-(3-morpholino-4-nitrophenyl)piperazin-1-yl)(phenyl)methanone] reads over 10 µM; that for `O=C(c1ccccc1)N1CCN(c2ccc([N+](=O)[O-])c(N3CCC(N4CCCC4)CC3)c2)CC1` [TRV 1139, (4-(4-nitro-3-(4-(pyrrolidin-1-yl)piperidin-1-yl)phenyl)piperazin-1-yl)(phenyl)methanone], about 10 µM; that for `CC(C)Nc1cc(N2CCN(C(=O)c3ccccc3)CC2)ccc1[N+](=O)[O-]` [TRV 1144, (4-(3-(isopropylamino)-4-nitrophenyl)piperazin-1-yl)(phenyl)methanone], over 10 µM.
To `CN1CCN(c2cc(N3CCN(C(=O)c4ccccc4)CC3)ccc2[N+](=O)[O-])CC1` [TRV 1146, (4-(3-(4-methylpiperazin-1-yl)-4-nitrophenyl)piperazin-1-yl)(phenyl)methanone] belongs over 10 µM.
The result for `O=C(c1ccccc1)N1CCN(c2ccc([N+](=O)[O-])c(NC3CCC3)c2)CC1` [TRV 1149, (4-(3-(cyclobutylamino)-4-nitrophenyl)piperazin-1-yl)(phenyl)methanone] reads over 10 µM; that for `CC(C)N(C)c1cc(N2CCN(C(=O)c3ccccc3)CC2)ccc1[N+](=O)[O-]` [TRV 1152, (4-(3-(isopropyl(methyl)amino)-4-nitrophenyl)piperazin-1-yl)(phenyl)methanone], 16.9 ± 0.52 µM; that for `O=[N+]([O-])c1ccc(-c2cccc(C(O)(O)C(F)(F)F)c2)cc1NCc1ccccc1` [TRV 1153, 1-(3′-(benzylamino)-4′-nitro-[1,1′-biphenyl]-3-yl)-2,2,2-trifluoroethane-1,1-diol], 7.08 ± 0.19 µM.
The molecule `CN(c1cc(N2CCN(C(=O)c3ccccc3)CC2)ccc1[N+](=O)[O-])C1CCC1` [TRV 1154, (4-(3-(cyclobutyl(methyl)amino)-4-nitrophenyl)piperazin-1-yl)(phenyl)methanone] had an IC50 of 11.6 ± 1.24 µM.
To `O=[N+]([O-])c1ccc(-c2cccc(C(O)C(F)(F)F)c2)cc1N1CCCC1` (centres unmarked) [TRV 1155, 2,2,2-trifluoro-1-(4′-nitro-3′-(pyrrolidin-1-yl)-[1,1′-biphenyl]-3-yl)ethanol] belongs 6.65 ± 1.97 µM; to `O=C(c1ccccc1)N1CCN(c2cc(F)c(F)c(N3CCCC3)c2)CC1` [TRV 1156, (4-(3,4-difluoro-5-(pyrrolidin-1-yl)phenyl)piperazin-1-yl)(phenyl)methanone], over 50 µM; to `CC(C)Nc1ccc(N2CCN(C(=O)c3ccccc3)CC2)cc1N1CCCC1` [TRV 1157, (4-(4-(isopropyl amino)-3-(pyrrolidin-1-yl)phenyl)piperazin-1-yl)(phenyl)methanone], over 50 µM.
Turning to `O=C(c1ccccc1)N1CCN(c2ccc(F)c(NCc3ccccc3)c2)CC1` [TRV 1159, (4-(3-(benzylamino)-4-fluorophenyl)piperazin-1-yl)(phenyl)methanone], the IC50 was over 50 µM.
To `CC(C)Nc1cc(N2CCN(C(=O)c3ccccc3)CC2)ccc1F` [TRV 1160, (4-(4-fluoro-3-(isopropylamino)phenyl)piperazin-1-yl)(phenyl)methanone] belongs over 50 µM.
The result for `O=C(c1ccccc1)N1CCN(c2ccc(F)c(N3CCCC3)c2)CC1` [TRV 1162, (4-(4-fluoro-3-(pyrrolidin-1-yl)phenyl)piperazin-1-yl)(phenyl)methanone] reads over 50 µM; that for `O=C(c1ccccc1)N1CCN(c2cc(N3CCCC3)cc(C(F)(F)F)c2)CC1` [TRV 1163, phenyl(4-(3-(pyrrolidin-1-yl)-5-(trifluoromethyl)phenyl)piperazin-1-yl)methanone], over 50 µM; that for `O=C(c1ccccc1)N1CCN(c2ccc(-n3cnnn3)c(N3CCCC3)c2)CC1` [TRV 1164, phenyl(4-(3-(pyrrolidin-1-yl)-4-(1H-tetrazol-1-yl)phenyl)piperazin-1-yl)methanone], over 50 µM.
The result for `CC(C)Nc1cc(N2CCN(C(=O)c3ccccc3)CC2)ccc1C(F)(F)F` [TRV 1166, (4-(3-(isopropylamino)-4-(trifluoromethyl)phenyl)piperazin-1-yl)(phenyl)methanone] reads over 50 µM.
